According to PubChem BioAssay (NCI):
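The compound was tested at five concentrations on cells cultured in 96-well plates, with a 48-hour exposure period. TGI: concentration producing complete growth inhibition.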

Key:
Test in all cases: NCI anticancer screen, dose series, 48 h
[1] = test system: CCRF-CEM leukemia
[2] = test system: LOX IMVI melanoma
[3] = test system: RPMI-8226 leukemia
[4] = test system: EKVX NSCLC
[5] = test system: HOP-62 NSCLC
[6] = test system: HS 578T breast
[7] = test system: SN12C renal
[8] = test system: BT-549 breast
[9] = test system: SF-268 CNS
[10] = test system: HCT-116 colon
[11] = test system: UACC-257 melanoma
[12] = test system: HT29 colon
[13] = test system: RXF 393 renal
[14] = test system: NCI-H23 lung
[15] = test system: SK-MEL-28 melanoma
[16] = test system: ACHN renal
[17] = test system: SNB-75 CNS
[18] = test system: IGROV1 ovarian
[19] = test system: SK-MEL-5 melanoma
[20] = test system: MDA-N
[21] = test system: SF-539 CNS
[22] = test system: A498 renal
[23] = test system: HOP-92 NSCLC
[24] = test system: SR leukemia
[25] = test system: OVCAR-8 ovarian
[26] = test system: NCI-H460 lung
[27] = test system: M14 melanoma
[28] = test system: UACC-62 melanoma
[29] = test system: SF-295 CNS
[30] = test system: TK-10 renal
[31] = test system: SK-MEL-2 melanoma
[32] = test system: OVCAR-5 ovarian
[33] = test system: HCC-2998 colon
[34] = test system: SW-620 colon
[35] = test system: DU-145 prostate
[36] = test system: HCT-15 colon
[37] = test system: OVCAR-3 ovarian
[38] = test system: HL-60(TB) leukemia
[39] = test system: MDA-MB-435
[40] = test system: KM12 colon
[41] = test system: MALME-3M melanoma
[42] = test system: UO-31 renal
[43] = test system: MCF7 breast
[44] = test system: NCI/ADR-RES ovarian
[45] = test system: NCI-H522 lung
[46] = test system: COLO 205 colon
[47] = test system: K-562 leukemia
[48] = test system: MOLT-4 leukemia
[49] = test system: PC-3 prostate
[50] = test system: 786-0 renal
[51] = test system: U251 CNS
[52] = test system: MDA-MB-231 breast
[53] = test system: A549 NSCLC
[54] = test system: CAKI-1 renal
[55] = test system: T-47D breast
[56] = test system: SNB-19 CNS
[57] = test system: SK-OV-3 ovarian
[58] = test system: OVCAR-4 ovarian
[59] = test system: NCI-H226 lung

## CC(C)(C)OC(=O)NC(Cc1ccc(OCc2ccccc2)cn1)C(=O)N1CCCC1 (stereo not given)
[1]
  TGI: > 100 µM
[2]
  TGI: > 100 µM
[3]
  TGI: > 100 µM
[4]
  TGI: > 100 µM
[5]
  TGI: > 100 µM
[6]
  TGI: > 100 µM
[7]
  TGI: > 100 µM
[8]
  TGI: 96.7 µM
[9]
  TGI: > 100 µM
[10]
  TGI: > 100 µM
[11]
  TGI: > 100 µM
[12]
  TGI: > 100 µM
[13]
  TGI: > 100 µM
[14]
  TGI: > 100 µM
[15]
  TGI: > 100 µM
[16]
  TGI: > 100 µM
[17]
  TGI: > 100 µM
[18]
  TGI: > 100 µM
[19]
  TGI: 41.9 µM
[20]
  TGI: > 100 µM
[21]
  TGI: 67.4 µM
[22]
  TGI: > 100 µM
[23]
  TGI: > 100 µM
[24]
  TGI: > 100 µM
[25]
  TGI: > 100 µM
[26]
  TGI: > 100 µM
[27]
  TGI: > 100 µM
[28]
  TGI: > 100 µM
[29]
  TGI: > 100 µM
[30]
  TGI: > 100 µM
[31]
  TGI: > 100 µM
[32]
  TGI: > 100 µM
[33]
  TGI: > 100 µM
[34]
  TGI: > 100 µM
[35]
  TGI: > 100 µM
[36]
  TGI: > 100 µM
[37]
  TGI: > 100 µM
[38]
  TGI: > 100 µM
[39]
  TGI: > 100 µM
[40]
  TGI: > 100 µM
[41]
  TGI: > 100 µM
[42]
  TGI: > 100 µM
[43]
  TGI: > 100 µM
[44]
  TGI: 91.8 µM
[45]
  TGI: > 100 µM
[46]
  TGI: > 100 µM
[47]
  TGI: > 100 µM
[48]
  TGI: > 100 µM
[49]
  TGI: > 100 µM
[50]
  TGI: > 100 µM
[51]
  TGI: > 100 µM
[52]
  TGI: > 100 µM
[53]
  TGI: > 100 µM
[54]
  TGI: > 100 µM
[55]
  TGI: > 100 µM
[56]
  TGI: > 100 µM

## COC(=O)c1cc(C)n(CN(Cn2nc(C(=O)OC)cc2C)c2ccccc2)n1
[1]
  TGI: 54.2 µM
[2]
  TGI: 42.3 µM
[3]
  TGI: 44.6 µM
[4]
  TGI: > 100 µM
[5]
  TGI: > 100 µM
[6]
  TGI: > 100 µM
[7]
  TGI: > 100 µM
[8]
  TGI: > 100 µM
[9]
  TGI: > 100 µM
[10]
  TGI: 40.9 µM
[11]
  TGI: > 100 µM
[12]
  TGI: 36 µM
[13]
  TGI: 44.4 µM
[14]
  TGI: 69.6 µM
[15]
  TGI: > 100 µM
[16]
  TGI: 44.6 µM
[18]
  TGI: > 100 µM
[19]
  TGI: > 100 µM
[20]
  TGI: > 100 µM
[21]
  TGI: 36.3 µM
[22]
  TGI: > 100 µM
[23]
  TGI: > 100 µM
[24]
  TGI: 25.5 µM
[25]
  TGI: 47.9 µM
[57]
  TGI: > 100 µM
[26]
  TGI: > 100 µM
[27]
  TGI: > 100 µM
[28]
  TGI: 88 µM
[29]
  TGI: > 100 µM
[30]
  TGI: > 100 µM
[31]
  TGI: > 100 µM
[32]
  TGI: > 100 µM
[34]
  TGI: > 100 µM
[35]
  TGI: > 100 µM
[36]
  TGI: 47.2 µM
[37]
  TGI: > 100 µM
[38]
  TGI: 47.5 µM
[39]
  TGI: > 100 µM
[40]
  TGI: > 100 µM
[41]
  TGI: > 100 µM
[42]
  TGI: 55.2 µM
[43]
  TGI: 93.5 µM
[44]
  TGI: 94.7 µM
[45]
  TGI: > 100 µM
[46]
  TGI: 32 µM
[58]
  TGI: > 100 µM
[47]
  TGI: 60.4 µM
[48]
  TGI: 33.4 µM
[49]
  TGI: > 100 µM
[50]
  TGI: 61 µM
[51]
  TGI: > 100 µM
[52]
  TGI: > 100 µM
[53]
  TGI: > 100 µM
[54]
  TGI: > 100 µM
[55]
  TGI: 88.3 µM
[56]
  TGI: > 100 µM

## NC(N)=N/N=C\c1ccc(C2CCNCC2)cc1
[1]
  TGI: > 100 µM
[2]
  TGI: > 100 µM
[3]
  TGI: > 100 µM
[4]
  TGI: > 100 µM
[5]
  TGI: > 100 µM
[6]
  TGI: > 100 µM
[7]
  TGI: > 100 µM
[8]
  TGI: > 100 µM
[9]
  TGI: > 100 µM
[10]
  TGI: > 100 µM
[59]
  TGI: > 100 µM
[11]
  TGI: > 100 µM
[12]
  TGI: > 100 µM
[13]
  TGI: > 100 µM
[14]
  TGI: > 100 µM
[15]
  TGI: > 100 µM
[16]
  TGI: > 100 µM
[17]
  TGI: > 100 µM
[18]
  TGI: > 100 µM
[19]
  TGI: > 100 µM
[20]
  TGI: > 100 µM
[21]
  TGI: > 100 µM
[22]
  TGI: > 100 µM
[23]
  TGI: > 100 µM
[24]
  TGI: > 100 µM
[25]
  TGI: > 100 µM
[57]
  TGI: > 100 µM
[26]
  TGI: > 100 µM
[27]
  TGI: > 100 µM
[28]
  TGI: > 100 µM
[29]
  TGI: > 100 µM
[30]
  TGI: > 100 µM
[31]
  TGI: > 100 µM
[32]
  TGI: > 100 µM
[33]
  TGI: > 100 µM
[34]
  TGI: > 100 µM
[35]
  TGI: > 100 µM
[36]
  TGI: > 100 µM
[37]
  TGI: > 100 µM
[39]
  TGI: > 100 µM
[40]
  TGI: > 100 µM
[41]
  TGI: > 100 µM
[42]
  TGI: > 100 µM
[43]
  TGI: > 100 µM
[44]
  TGI: > 100 µM
[45]
  TGI: > 100 µM
[46]
  TGI: > 100 µM
[58]
  TGI: > 100 µM
[47]
  TGI: > 100 µM
[48]
  TGI: > 100 µM
[49]
  TGI: > 100 µM
[50]
  TGI: > 100 µM
[51]
  TGI: > 100 µM
[52]
  TGI: > 100 µM
[53]
  TGI: > 100 µM
[54]
  TGI: > 100 µM
[55]
  TGI: > 100 µM
[56]
  TGI: > 100 µM
